Molecular target: T1, horseradish peroxidase (HRP) (Armoracia rusticana, UniProt P00433)
T1 sequence (P00433 31-338 limits assumed): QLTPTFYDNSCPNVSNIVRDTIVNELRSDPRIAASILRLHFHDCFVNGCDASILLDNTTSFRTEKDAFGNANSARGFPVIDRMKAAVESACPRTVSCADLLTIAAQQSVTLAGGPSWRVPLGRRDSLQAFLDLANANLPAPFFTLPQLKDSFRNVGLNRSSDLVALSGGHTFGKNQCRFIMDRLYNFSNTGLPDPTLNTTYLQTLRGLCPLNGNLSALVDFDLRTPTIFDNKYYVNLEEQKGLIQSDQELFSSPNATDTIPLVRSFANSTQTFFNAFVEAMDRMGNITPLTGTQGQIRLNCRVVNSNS
Test: Chemiluminescent detection of HRP: reaction of compound with peroxidase and peroxide
Format: biochemical
Settings: for time to maximum chemiluminescence intensity: 0.01 M tris pH 8.0, 0.5 mM urea peroxide, 0.1 mM p-phenylphenol, 1 mM EDTA, 0.025% Tween 20, 5×10^−5 M acridan, HRP 3.5×10^−16 to 1.4×10^−15 moles
Procedure: FIG. 1 is a graph relating the amount of HRP to the chemiluminescence intensity at 15 min emitted by 100 μL of a reagent described in Example 20 containing acridan phosphate 5 triggered at room temperature. Chemiluminescence emission was initiated by addition of 10 μL of solutions of HRP containing between 1.4×10^−15 and 1.4×10^−19 moles of enzyme to 100 μL of the reagent comprising 0.055 M tris buffer, pH 8.6, 0.25 mM urea peroxide, 0.05 mM p-phenylphenol, 0.5 mM EDTA, 0.0125% Tween 20 and 3.3×10^−4 M acridan 5 in the wells of a black microplate. The term S-B refers to the chemiluminescence signal (S) in Relative Light Units (RLU) in the presence of HRP corrected for background chemiluminescence (B) in the absence of HRP.
FIG. 2 is a graph relating the amount of HRP to the chemiluminescence intensity at 15 min emitted by 100 μL of a reagent described in Example 21 containing acridan phosphate 13 triggered at room temperature. Chemiluminescence emission was initiated by addition of 10 μL of solutions of HRP containing between 1.4×10^−15 and 1.4×10^−19 moles of enzyme to 100 μL of a reagent comprising 0.055 M tris buffer, pH 8.6, 0.25 mM urea peroxide, 0.05 mM p-phenylphenol, 0.5 mM EDTA, 0.0125% Tween 20 and 3.3×10^−4 M acridan 13 in a black microplate.
FIG. 3 is a graph showing the time profile of chemiluminescence resulting from reaction of 1.4×10^−15 moles of HRP at 25° C. with 100 μL of the reagent containing acridan 5 described in Example 20.
(§1) FIG. 4 is a graph relating the amount of HRP to the maximum chemiluminescence intensity at 2 min emitted by 100 μL of a reagent containing acridan 37 triggered at room temperature. Chemiluminescence emission was initiated by addition of 10 μL of solutions of HRP containing between 1.4×10^−14 to 1.4×10^−19 moles to 100 μL of reagent composition comprising 0.01 M tris buffer, pH 8.0, 0.5 mM urea peroxide, 0.1 mM p-phenylphenol, 1 mM EDTA, 0.025% Tween 20 and 5×10^−5 M acridan 37.
FIG. 5 is a graph showing the time profile of chemiluminescence resulting from reaction of 1.4×10^−15 moles of HRP at 25° C. with 40 μL of a reagent comprising 0.01 M tris buffer, pH 8.0, 0.5 mM urea peroxide, 0.1 mM p-phenylphenol, 1 mM EDTA, 0.025% Tween 20 and 5×10^−5 M acridan 38.
as §1, with “FIG. 6” for “FIG. 4”, “at 30” for “at 2”, “acridan 39” for “acridan 37”, “between 1.4×10^−15” for “between 1.4×10^−14”, “to 1.4×10^−20” for “to 1.4×10^−19”, “acridan 39.” for “acridan 37.”
FIG. 7 is a graph showing the time profile of chemiluminescence resulting from reaction of 3.5×10^−16 moles of HRP at 25° C. with 100 μL of a reagent comprising 0.01 M tris buffer, pH 8.0, 0.5 mM urea peroxide, 0.1 mM p-phenylphenol, 1 mM EDTA, 0.025% Tween 20 and 5×10^−5 M acridan 50.
FIG. 8 is a graph relating the amount of HRP to the maximum chemiluminescence intensity at 15 min emitted by 100 μL of a reagent containing acridan 43 triggered at room temperature. Chemiluminescence emission was initiated by addition of 10 μL of solutions of HRP containing between 1.4×10^−15 to 1.4×10^−19 moles to 100 μL of a reagent composition comprising 0.055 M tris buffer, pH 8.6, 0.25 mM urea peroxide, 0.05 mM p-phenylphenol, 0.5 mM EDTA, 0.0125% Tween 20, 1 mM CTAB and 6.6×10^−4 M acridan 43.
Reagent compositions comprising 0.055 M tris buffer, pH 8.6, 0.25 mM urea peroxide, 0.05 mM p-phenylphenol, 0.5 mM EDTA, 0.0125% Tween 20, 1 mM CTAB and 3.3×10^−4 M compound 46 alone or with 50 μM DBA were tested for production of chemiluminescence by reacting a 100 μL aliquot with 3.5×10^−15 moles of HRP. […]

CCOP(=O)(OCC)OC(Oc1ccccc1)=C1c2ccccc2N(C)c2ccccc21 [Compound 37]
production of chemiluminescence on reaction with a peroxidase and a peroxide: Light production ensued upon mixing

CCOP(=O)(OCC)OC(Sc1ccccc1)=C1c2ccccc2N(C)c2ccccc21 [Compound 38]
production of chemiluminescence on reaction with a peroxidase and a peroxide: Light production ensued upon mixing | time to maximum chemiluminescence intensity: 1 min

CC(=O)OC(Oc1ccccc1)=C1c2ccccc2N(C)c2ccccc21 [Compound 39]
production of chemiluminescence on reaction with a peroxidase and a peroxide: Light production ensued upon mixing | time to maximum chemiluminescence intensity: 30 min

CC(=O)OC(Sc1ccccc1)=C1c2ccccc2N(C)c2ccccc21 [Compound 40]
production of chemiluminescence on reaction with a peroxidase and a peroxide: Light production ensued upon mixing | time to maximum chemiluminescence intensity: 7 min

C/C(=C(/OP(=O)([O-])[O-])Sc1ccccc1)c1ccc2cc([O-])ccc2c1.[Na+].[Na+].[Na+] [Compound 43]
increase of light intensity when CTAB was included in the reaction mixture (reaction with a peroxidase and a peroxide, with vs without CTAB): increased more than ten-fold

COC(Sc1ccccc1)=C1c2ccccc2N(C)c2ccccc21 [Compound 50]
production of chemiluminescence on reaction with a peroxidase and a peroxide: Light production ensued upon mixing | time to maximum chemiluminescence intensity: 7 min
